This is an account of results in PubChem BioAssay (NCI).

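Where inhibition never reached the appropriate level, the endpoint shown equals the highest concentration tested. Otherwise, values were interpolated linearly from a five-concentration, 48-hour dose response in 96-well plates. TGI denotes the concentration required for complete inhibition of growth.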

Holding throughout (experiment): growth of human tumour cells (NCI), 48 h
Experiment [1] has as its system A549 NSCLC.
Experiment [2] has as its system BT-549 breast.
Experiment [3] concerns DU-145 prostate.
Experiment [4] concerns HCT-15 colon.
For experiment [5], the system named is NCI-H226 lung.
The test system of experiment [6] is NCI/ADR-RES ovarian.
Experiment [7] concerns OVCAR-5 ovarian.
Experiment [8] deals with SK-MEL-5 melanoma.
The test system of experiment [9] is SN12C renal.
Experiment [10] has as its system TK-10 renal.

On to `C=c1c(OC)c(OC)c(O)c2c1=c1cc([N+](=O)[O-])cc(OC)c1=N2`, for which the TGI in [1], in [2], in experiment [3], in experiment [4], in experiment [5] and in experiment [6] was more than 100 µM throughout. In addition, the TGI in [7], in experiment [8], in experiment [9] and in [10] was more than 100 µM throughout.
With `CCCCc1ccc(Nc2nc3c(ncn3COCCO)c(=O)[nH]2)cc1`, the TGI in experiment [1], in experiment [2], in experiment [3], in experiment [4], in experiment [5] and in [6] was more than 100 µM each time. Further, the TGI in experiment [7], in experiment [8], in [9] and in [10] was more than 100 µM each time.
As to `COC(=O)Cc1c([C@H]2[C@H](CC(=O)OC)c3ccccc3N2C(C)=O)[nH]c2ccccc12`, the TGI in [1], in experiment [2], in experiment [3], in [4], in experiment [5] and in [6] was more than 100 µM each time. Also, the TGI in [7], in [8], in experiment [9] and in [10] was more than 100 µM each time.
Regarding `Nc1ccc(S(=O)(=O)Nc2nc3ccccc3nc2N2CCCCC2)cc1`, the TGI in experiment [1], in experiment [2], in [3], in experiment [4], in experiment [5] and in [6] was more than 100 µM in each case. The TGI in experiment [7], in experiment [8], in experiment [9] and in [10] was more than 100 µM in each case.
With `c1ccc2c3c(c(N4CCOCC4)nc2c1)CCCC3`, the TGI in experiment [1] was more than 100 µM; in [2], more than 100 µM; in experiment [3] it was more than 100 µM; in experiment [4], more than 100 µM; in experiment [5], 68.1 µM; in experiment [6], more than 100 µM. Moreover, the TGI in experiment [7] was 81.2 µM; in [8] it was 54.7 µM; in experiment [9], more than 100 µM; in experiment [10] it was more than 100 µM.
Take `O=c1oc2cc(O)ccc2c(O)c1C(c1ccc(C(c2c(O)c3ccc(O)cc3oc2=O)c2c(O)c3ccc(O)cc3oc2=O)cc1)c1c(O)c2ccc(O)cc2oc1=O`: the TGI in [1], in [2], in [3], in [4], in experiment [5] and in experiment [6] was more than 100 µM in each case. Besides, the TGI in experiment [7], in [8], in experiment [9] and in [10] was more than 100 µM each time.
As to `COc1cc(CN2CCCCC2)cc2cc(C(=O)O)c(=O)oc12`, the TGI in [1], in experiment [2], in experiment [3], in experiment [4], in [5] and in experiment [6] was more than 100 µM in each case. The TGI in [7], in experiment [8], in [9] and in experiment [10] was more than 100 µM in each case.
Turning to `FC(F)(F)c1ccc2nc3n(c2c1)C(c1c(Cl)cccc1Cl)SC3` (stereo not drawn), the TGI is 29.5 µM in experiment [1]; 50.3 µM in experiment [2]; 32.3 µM in experiment [3]; 29.6 µM in experiment [4]; 35.4 µM in experiment [5]; 25.7 µM in experiment [6]. The TGI stood at 30.4 µM in experiment [7], 32.7 µM in experiment [9] and 35.4 µM in [10].
Regarding `Clc1ccc(OCc2nnc(CCCCCCCCc3nnc(COc4ccc(Cl)cc4)n3Nc3ccccc3)n2Nc2ccccc2)cc1`, the TGI in [1] was more than 83.3 µM; in [2], 97.5 µM; in experiment [3], more than 80.9 µM; in experiment [4], more than 100 µM; in experiment [5], more than 100 µM; in [6], 81.5 µM. The TGI was more than 100 µM in experiment [7], 2.72 µM in [8], 99 µM in [9] and more than 100 µM in [10].
`NC(=O)C(=CNC(=S)c1ccncc1)C(N)=O`: the TGI in experiment [1], in experiment [2], in experiment [3], in experiment [4], in experiment [5] and in experiment [6] was more than 100 µM in each case. Further, the TGI in [7], in [8], in experiment [9] and in experiment [10] was more than 100 µM each time.
As for `CCOC(=O)/C(C#N)=N\Nc1ccc(-n2c(C)nc3ccccc3c2=O)cc1`, the TGI in experiment [1] is more than 100 µM; in experiment [2], more than 100 µM; in experiment [3], more than 100 µM; in [4], more than 100 µM; in experiment [5], more than 100 µM; in experiment [6] it was 86.8 µM. In addition, the TGI in experiment [7] was more than 100 µM; in [8], 36.6 µM; in experiment [9], more than 100 µM; in [10], more than 100 µM.
For the compound `C=C1CC(C)(c2ccc(Nc3nc4ccccc4c4occc34)cc2)OC1=O` (stereo not drawn), the TGI in experiment [1] came out at 23.7 µM; in experiment [2], 7.02 µM; in [3] it was 28.4 µM; in experiment [4], 4.73 µM; in [5], 1.94 µM; in [6], 20.1 µM. The TGI in experiment [7] is 30.6 µM; in experiment [8], 19.6 µM; in experiment [9] it was 4.91 µM; in [10] it was 16.7 µM.
For `CCN1CCC(O)(C(C(=O)O)c2ccccc2)CC1` (stereo not drawn), the TGI in experiment [1], in experiment [2], in experiment [3], in [4], in experiment [5] and in [6] was more than 100 µM in each case. For the same compound, the TGI in experiment [7], in experiment [8] and in experiment [10] was more than 100 µM each time.
